# Patent US9783532B2, “Molecules having certain pesticidal utilities, and intermediates, compositions, and processes related thereto” (Dow AgroSciences LLC, priority 2013, dated 2017)
# Legend:
# [1] = system: Beet Armyworm (Spodoptera exigua) ("BAW"); assay: Bioassay on beet armyworm (BAW), 128-well diet tray assay; type: in vivo; conditions: for pest or weed control at 50 µg/cm2: Table ABC (FB), activity rating class, read-out: BAW (Biological Results, Insect species); for mortality at 50 µg/cm2: 168 h, 50 μg/cm^2 on artificial diet, second instar BAW larvae, 25° C., five to seven days, average of eight wells, read-out: BAW % Control (or Mortality) rating
# In short: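 Second-instar larvae (one to five per well) were placed on artificial diet surface-treated with 50 μg/cm^2 compound applied in 90:10 acetone-water and dried, eight wells per compound. Held at 25° C., 14:10 light-dark for five to seven days; percent mortality was scored per well and averaged over the eight wells.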
# [2] = system: Cabbage Looper (Trichoplusia ni) ("CL"); assay: Bioassay on cabbage looper (CL), 128-well diet tray assay; type: in vivo; conditions: for pest or weed control at 50 µg/cm2: Table ABC (FB), activity rating class, read-out: CL (Biological Results, Insect species); for mortality at 50 µg/cm2: 168 h, 50 μg/cm^2 on artificial diet, second instar CL larvae, 25° C., five to seven days, average of eight wells, read-out: CL % Control (or Mortality) rating
# In short: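 Second-instar larvae (one to five per well) placed on artificial diet surface-treated with 50 μg/cm^2 compound in 90:10 acetone-water, dried before infestation. Held 25 °C, 14:10 light-dark for five to seven days; percent mortality scored per well and averaged over eight wells.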
Compound,pest or weed control at 50 µg/cm2 [1],pest or weed control at 50 µg/cm2 [2],mortality at 50 µg/cm2 [1],mortality at 50 µg/cm2 [2]
"CC(C)c1ccc(Cl)cc1N1C(=O)CS/C1=N\C(=O)NCCc1ccc(-c2ncn(-c3ccc(C(F)(F)F)cc3)n2)cc1 [FB50, (Z)-1-(3-(5-chloro-2-isopropylphenyl)-4-oxothiazolidin-2-ylidene)-3-(4-(1-(4-(trifluoromethyl)phenyl)-1H-1,2,4-triazol-3-yl)phenethyl)urea]",50 to 100%,50 to 100%,–,–
"Cc1ccc(C(C)C)c(N2C(=O)CS/C2=N\C(=O)NC(C)(C)Cc2ccc(-c3ncn(-c4ccc(OC(F)(F)F)cc4)n3)cc2)c1 [FB52, (Z)-1-(3-(2-isopropyl-5-methylphenyl)-4-oxothiazolidin-2-ylidene)-3-(2-methyl-1-(4-(1-(4-(trifluoromethoxy)phenyl)-1H-1,2,4-triazol-3-yl)phenyl)propan-2-yl)urea]",50 to 100%,50 to 100%,–,–
"CCc1ccc(C)cc1N1/C(=N/C(=O)NCCc2ccc(-c3ncn(-c4ccc(OC(F)(F)F)cc4)n3)cc2)SCC1C (stereo not drawn) [FB55, (Z)-1-(3-(2-ethyl-5-methylphenyl)-4-methylthiazolidin-2-ylidene)-3-(4-(1-(4-(trifluoromethoxy)phenyl)-1H-1,2,4-triazol-3-yl)phenethyl)urea]",50 to 100%,50 to 100%,–,–
"Cc1ccc(C(C)C)c(N2C(=O)C(F)S/C2=N\C(=O)NCCc2ccc(-c3ncn(-c4ccc(OC(F)(F)F)cc4)n3)cc2)c1 (stereo not drawn) [FB64, (Z)-1-(5-fluoro-3-(2-isopropyl-5-methylphenyl)-4-oxothiazolidin-2-ylidene)-3-(4-(1-(4-(trifluoromethoxy)phenyl)-1H-1,2,4-triazol-3-yl)phenethyl)urea]",50 to 100%,50 to 100%,–,–
"CCS/C(=N\C(=O)NCCc1ccc(-c2ncn(-c3ccc(OC(F)(F)F)cc3)n2)cc1)Nc1cc(C)ccc1C(C)C [FB66, (Z)-ethyl N-(2-isopropyl-5-methylphenyl)-N′-((4-(1-(4-(trifluoromethoxy)phenyl)-1H-1,2,4-triazol-3-yl)phenethyl)carbamoyl)carbamimidothioate]",50 to 100%,50 to 100%,–,–
"Cc1ccc(C(C)C)c(N2C(=O)C(C)(C)S/C2=N\C(=O)NCCc2ccc(-c3ncn(-c4ccc(OC(F)(F)F)cc4)n3)cc2)c1 [FB68, (Z)-1-(3-(2-isopropyl-5-methylphenyl)-5,5-dimethyl-4-oxothiazolidin-2-ylidene)-3-(4-(1-(4-(trifluoromethoxy)phenyl)-1H-1,2,4-triazol-3-yl)phenethyl)urea]",50 to 100%,50 to 100%,–,–
"Cc1ccc(C(C)C)c(N2C(=O)C3(CC3)S/C2=N\C(=O)NCCc2ccc(-c3ncn(-c4ccc(OC(F)(F)F)cc4)n3)cc2)c1 [FB69, (Z)-1-(6-(2-isopropyl-5-methylphenyl)-7-oxo-4-thia-6-azaspiro[2.4]heptan-5-ylidene)-3-(4-(1-(4-(trifluoromethoxy)phenyl)-1H-1,2,4-triazol-3-yl)phenethyl)urea]",50 to 100%,50 to 100%,–,–
"Cc1ccc(C(C)C)c(N2C(=O)C(C(C)(C)O)S/C2=N\C(=O)NCCc2ccc(-c3ncn(-c4ccc(OC(F)(F)F)cc4)n3)cc2)c1 (stereo not drawn) [FB72, (Z)-1-(5-(2-hydroxypropan-2-yl)-3-(2-isopropyl-5-methylphenyl)-4-oxothiazolidin-2-ylidene)-3-(4-(1-(4-(trifluoromethoxy)phenyl)-1H-1,2,4-triazol-3-yl)phenethyl)urea]",50 to 100%,50 to 100%,–,–
"Cc1ccccc1N1C(=O)CS/C1=N\C(=O)NCc1ccc(-c2ncn(-c3ccc(OC(F)(F)F)cc3)n2)cc1 [P1, (Z)-1-(4-oxo-3-(o-tolyl)thiazolidin-2-ylidene)-3-(4-(1-(4-(trifluoromethoxy)phenyl)-1H-1,2,4-triazol-3-yl)benzyl)urea]",–,–,50 to 100%,50 to 100%
"CCc1ccccc1N1C(=O)CS/C1=N\C(=O)NCc1ccc(-c2ncn(-c3ccc(OC(F)(F)F)cc3)n2)cc1 [P2, P532, (Z)-1-(3-(2-ethylphenyl)-4-oxothiazolidin-2-ylidene)-3-(4-(1-(4-(trifluoromethoxy)phenyl)-1H-1,2,4-triazol-3-yl)benzyl)urea]",–,–,50 to 100%,50 to 100%
"CC(C)c1cc(F)ccc1N1C(=O)CS/C1=N\C(=O)NCc1ccc(-c2ncn(-c3ccc(OC(F)(F)F)cc3)n2)cc1 [P3, P1172, (Z)-1-(3-(4-fluoro-2-isopropylphenyl)-4-oxothiazolidin-2-ylidene)-3-(4-(1-(4-(trifluoromethoxy)phenyl)-1H-1,2,4-triazol-3-yl)benzyl)urea]",–,–,50 to 100%,50 to 100%
"Cc1ccc(N2C(=O)CS/C2=N\C(=O)NCc2ccc(-c3ncn(-c4ccc(OC(F)(F)F)cc4)n3)cc2)c(C(C)C)c1 [P5, (Z)-1-(3-(2-isopropyl-4-methylphenyl)-4-oxothiazolidin-2-ylidene)-3-(4-(1-(4-(trifluoromethoxy)phenyl)-1H-1,2,4-triazol-3-yl)benzyl)urea]",–,–,50 to 100%,50 to 100%
"COc1ccc(N2C(=O)CS/C2=N\C(=O)NCc2ccc(-c3ncn(-c4ccc(OC(F)(F)F)cc4)n3)cc2)c(C)c1 [P6, (Z)-1-(3-(4-methoxy-2-methylphenyl)-4-oxothiazolidin-2-ylidene)-3-(4-(1-(4-(trifluoromethoxy)phenyl)-1H-1,2,4-triazol-3-yl)benzyl)urea]",–,–,50 to 100%,50 to 100%
"CCc1ccc(C)cc1N1C(=O)CS/C1=N\C(=O)NCc1ccc(-c2ncn(-c3ccc(OC(F)(F)F)cc3)n2)cc1 [P7, (Z)-1-(3-(2-ethyl-5-methylphenyl)-4-oxothiazolidin-2-ylidene)-3-(4-(1-(4-(trifluoromethoxy)phenyl)-1H-1,2,4-triazol-3-yl)benzyl)urea]",–,–,50 to 100%,50 to 100%
"CCCc1ccc(C)cc1N1C(=O)CS/C1=N\C(=O)NCc1ccc(-c2ncn(-c3ccc(OC(F)(F)F)cc3)n2)cc1 [P8, P852, (Z)-1-(3-(5-methyl-2-propylphenyl)-4-oxothiazolidin-2-ylidene)-3-(4-(1-(4-(trifluoromethoxy)phenyl)-1H-1,2,4-triazol-3-yl)benzyl)urea]",–,–,50 to 100%,50 to 100%
"CC(C)c1ccccc1N1C(=O)CS/C1=N\C(=O)NCc1ccc(-c2ncn(-c3ccc(C(F)(F)F)cc3)n2)cc1 [P14, (Z)-1-(3-(2-isopropylphenyl)-4-oxothiazolidin-2-ylidene)-3-(4-(1-(4-(trifluoromethyl)phenyl)-1H-1,2,4-triazol-3-yl)benzyl)urea]",–,–,50 to 100%,50 to 100%
"Cc1ccc(N2C(=O)CS/C2=N\C(=O)NCc2ccc(-c3ncn(-c4ccc(C(F)(F)F)cc4)n3)cc2)c(C(C)C)c1 [P15, (Z)-1-(3-(2-isopropyl-4-methylphenyl)-4-oxothiazolidin-2-ylidene)-3-(4-(1-(4-(trifluoromethyl)phenyl)-1H-1,2,4-triazol-3-yl)benzyl)urea]",–,–,50 to 100%,50 to 100%
"Cc1ccc(C(C)C)c(N2/C(=N/C(=O)NCCc3ccc(-c4ncn(-c5ccc(OC(F)(F)F)cc5)n4)cc3)SCC2C)c1 (stereo not drawn) [P58, (Z)-1-(3-(2-isopropyl-5-methylphenyl)-4-methylthiazolidin-2-ylidene)-3-(4-(1-(4-(trifluoromethoxy)phenyl)-1H-1,2,4-triazol-3-yl)phenethyl)urea]",–,–,50 to 100%,50 to 100%
